Data reported in PubChem BioAssay AID248 (DTP/NCI, 2004).
“And” between values parts separate entries of the source, which are not always exact repeats. Equal entries are not always repeated. Toxic doses and inconclusive results are not listed. Rule as the data show it: active = T/C of 150% or more; inactive = T/C below 125%.

Tested on: L1210 leukemia ip in BDF1 mice, survival T/C
Test: NCI In Vivo Anticancer Drug Screen. Data for tumor model L1210 Leukemia (intraperitoneal) in B6D2F1 (BDF1) mice
Conditions: endpoint: mean survival time, higher = longer survival
In short: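 Antitumor effect is assessed in tumor-bearing animals. Survival in the compound arm is compared with a vehicle-dosed control arm and expressed as their quotient.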

[1] = dose: 100.0 mg/kg/injection, schedule: Q01DX001 (ip), vehicle: saline
[2] = dose: 200.0 mg/kg/injection, schedule: Q01DX001 (ip), vehicle: saline
[3] = dose: 400.0 mg/kg/injection, schedule: Q01DX001 (ip), vehicle: saline

Measured: T/C

CCOC(=O)CNC(=O)Oc1ccc2c(C)cc(=O)oc2c1
inactive: dose: 25.0 mg/kg/injection, schedule: Q01DX009 (ip), vehicle: carboxymethylcellulose (CMC) 100 % of control and 106 % of control | dose: 50.0 mg/kg/injection, schedule: Q01DX009 (ip), vehicle: carboxymethylcellulose (CMC) 98 % of control and 100 % of control | dose: 100.0 mg/kg/injection, schedule: Q01DX009 (ip), vehicle: carboxymethylcellulose (CMC) 93 % of control and 97 % of control | dose: 100.0 mg/kg/injection, schedule: Q04DX002 (ip), vehicle: carboxymethylcellulose (CMC) 98 % of control and 102 % of control | dose: 100.0 mg/kg/injection, schedule: Q04DX003 (ip), vehicle: carboxymethylcellulose (CMC) 92 % of control and 90 % of control | dose: 200.0 mg/kg/injection, schedule: Q01DX009 (ip), vehicle: carboxymethylcellulose (CMC) 100 % of control | dose: 200.0 mg/kg/injection, schedule: Q04DX002 (ip), vehicle: carboxymethylcellulose (CMC) 93 % of control and 97 % of control | dose: 200.0 mg/kg/injection, schedule: Q04DX003 (ip), vehicle: carboxymethylcellulose (CMC) 92 % of control and 87 % of control | dose: 400.0 mg/kg/injection, schedule: Q04DX002 (ip), vehicle: carboxymethylcellulose (CMC) 104 % of control and 105 % of control | dose: 400.0 mg/kg/injection, schedule: Q04DX003 (ip), vehicle: carboxymethylcellulose (CMC) 94 % of control and 101 % of control

COC(=O)c1cccc2c1ccc1ccccc12
inactive: dose: 37.5 mg/kg/injection, schedule: Q04DX003 (ip), vehicle: saline 92 % of control | dose: 50.0 mg/kg/injection, schedule: Q01DX009 (ip), vehicle: Klucel (hydroxypropylcellulose) (HPC) 111 % of control | dose: 75.0 mg/kg/injection, schedule: Q04DX003 (ip), vehicle: saline 94 % of control | dose: 100.0 mg/kg/injection, schedule: Q01DX009 (ip), vehicle: Klucel (hydroxypropylcellulose) (HPC) 105 % of control | dose: 150.0 mg/kg/injection, schedule: Q04DX003 (ip), vehicle: saline 89 % of control | dose: 200.0 mg/kg/injection, schedule: Q01DX009 (ip), vehicle: Klucel (hydroxypropylcellulose) (HPC) 96 % of control

CC/C(C)=N/NCCO
inactive: dose: 12.5 mg/kg/injection, schedule: Q01DX001 (ip), vehicle: saline 114 % of control | dose: 12.5 mg/kg/injection, schedule: Q01DX009 (ip), vehicle: saline 93 % of control | dose: 25.0 mg/kg/injection, schedule: Q01DX001 (ip), vehicle: saline 101 % of control | dose: 25.0 mg/kg/injection, schedule: Q01DX009 (ip), vehicle: saline 97 % of control | dose: 50.0 mg/kg/injection, schedule: Q01DX001 (ip), vehicle: saline 103 % of control and 104 % of control

CN(C)c1nc(N)nc2c1nc(Cl)n2C1OC(CO)C(O)C1O (stereo not given)
inactive: [1] 97 % of control | [2] 94 % of control | [3] 105 % of control

CCOC(=O)Nc1cc(NCC(O)CN(C)C)c([N+](=O)[O-])c(N)n1 (stereo not given)
inactive: dose: 100.0 mg/kg/injection, schedule: Q01DX001 (ip), vehicle: saline with Tween-80 103 % of control | dose: 200.0 mg/kg/injection, schedule: Q01DX001 (ip), vehicle: saline with Tween-80 94 % of control | dose: 400.0 mg/kg/injection, schedule: Q01DX001 (ip), vehicle: saline with Tween-80 101 % of control

Cc1ccc(Nc2ncnc3nc[nH]c23)cc1CN(CCO)CCO
inactive: [1] 101 % of control | [2] 101 % of control | [3] 95 % of control

Nc1nc2c(nnn2C2CC(CO)C(O)C2O)c(=O)[nH]1 (stereo not given)
inactive: dose: 100.0 mg/kg/injection, schedule: Q01DX001 (ip), vehicle: other 104 % of control | dose: 200.0 mg/kg/injection, schedule: Q01DX001 (ip), vehicle: other 105 % of control | dose: 400.0 mg/kg/injection, schedule: Q01DX001 (ip), vehicle: other 109 % of control

CC1=C(C(=O)O)C(C)CC(=O)N1c1ccccc1 (stereo not given)
inactive: dose: 50.0 mg/kg/injection, schedule: Q01DX001 (ip), vehicle: carboxymethylcellulose (CMC) 102 % of control | dose: 100.0 mg/kg/injection, schedule: Q01DX001 (ip), vehicle: carboxymethylcellulose (CMC) 96 % of control | dose: 200.0 mg/kg/injection, schedule: Q01DX001 (ip), vehicle: carboxymethylcellulose (CMC) 93 % of control | dose: 400.0 mg/kg/injection, schedule: Q01DX001 (ip), vehicle: carboxymethylcellulose (CMC) 96 % of control

COC1C(O)C(C)OC(OC2CCC3(C)C(CCC4C3C(O)CC3(C)C(C5=CC(=O)OC5)CCC43O)C2)C1O (stereo not given)
inactive: dose: 5.0 mg/kg/injection, schedule: Q01DX001 (ip), vehicle: saline 103 % of control | dose: 10.0 mg/kg/injection, schedule: Q01DX001 (ip), vehicle: saline 103 % of control | dose: 20.0 mg/kg/injection, schedule: Q01DX001 (ip), vehicle: saline 101 % of control

CN1CCC(OC(=O)C(O)C2CCCCC2)CC1 (stereo not given)
inactive: dose: 100.0 mg/kg/injection, schedule: Q04DX003 (ip), vehicle: Klucel (hydroxypropylcellulose) (HPC) 104 % of control | dose: 200.0 mg/kg/injection, schedule: Q04DX003 (ip), vehicle: Klucel (hydroxypropylcellulose) (HPC) 103 % of control

CN(C)c1ccc(NC(=O)/C=C/C(=O)O)cc1
inactive: dose: 100.0 mg/kg/injection, schedule: Q04DX003 (ip), vehicle: saline with Tween-80 108 % of control | dose: 200.0 mg/kg/injection, schedule: Q04DX003 (ip), vehicle: saline with Tween-80 101 % of control | dose: 400.0 mg/kg/injection, schedule: Q04DX003 (ip), vehicle: saline with Tween-80 101 % of control
